According to ChEMBL document CHEMBL1949614, “Advent of Imidazo[1,2-a]pyridine-3-carboxamides with Potent Multi- and Extended Drug Resistant Antituberculosis Activity” (ACS Med Chem Lett, 2011):
Values after ≈ are worked out from the molar mass of the structure shown.

What was measured:
Experiment in all cases: microbe, parasite or virus in culture
[1] = tested on: Mycobacterium tuberculosis
[2] = tested on: Mycobacterium tuberculosis; remark: listed apart in the source
[3] = tested on: Mycobacterium tuberculosis; remark: listed apart in the source
[4] = tested on: Mycobacterium tuberculosis; remark: listed apart in the source
[5] = tested on: Mycobacterium tuberculosis; details: variant bovis BCG

| SMILES | MIC90 [1] | MIC90 [2] | MIC90 [3] | MIC90 [4] | MIC90 [5] |
| --- | --- | --- | --- | --- | --- |
| COc1cccc(CNC(=O)c2c(C)nc3ncc(C)cn23)c1 | 1.49 µM (≈ 0.462 µg/mL) | 5.84 µM (≈ 1.81 µg/mL) | 1.02 µM (≈ 0.317 µg/mL) | 5.84 µM (≈ 1.81 µg/mL) | 2.78 µM (≈ 0.863 µg/mL) |
| Cc1ccn2c(C(=O)NCc3ccccc3)c(C)nc2c1 | 0.28 µM (≈ 0.0782 µg/mL) | – | 1.07 µM (≈ 0.299 µg/mL) | 1.02 µM (≈ 0.285 µg/mL) | 0.33 µM (≈ 0.0922 µg/mL) |
| NNC(=O)c1ccncc1 [ISONIAZID] | – | > 8 µM | – | – | – |
| CO[C@H]1/C=C/O[C@@]2(C)Oc3c(C)c(O)c4c(O)c(c(/C=N/N5CCN(C)CC5)c(O)c4c3C2=O)NC(=O)/C(C)=C\C=C\[C@H](C)[C@H](O)[C@@H](C)[C@@H](O)[C@@H](C)[C@H](OC(C)=O)[C@@H]1C [RIFAMPIN] | > 1 µM | – | – | – | < 0.78 µM |
